Biological target: T1, TFAM (mitochondrial transcription factor A) (Homo sapiens, UniProt Q00059)
T1 construct: endogenous protein in intact human HepG2 cells
T1 sequence (Q00059 43-246): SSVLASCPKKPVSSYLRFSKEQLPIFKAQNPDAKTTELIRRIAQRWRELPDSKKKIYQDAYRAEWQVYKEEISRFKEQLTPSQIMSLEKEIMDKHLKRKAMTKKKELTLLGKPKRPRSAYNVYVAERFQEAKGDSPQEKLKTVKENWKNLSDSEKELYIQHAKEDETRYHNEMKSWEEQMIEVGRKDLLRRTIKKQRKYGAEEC
Assay: cellular thermal shift assay (CETSA), Western blot
Format: cell-based
Settings: intact cells incubated 2 h with or without OA, heated 3 min at 43 to 70 °C; rightward shift of melting curve

With `COc1c(O)cc2oc(-c3ccccc3)cc(=O)c2c1O` [Oroxylin A] the thermal shift was “thermal shift assays showed a significant rightward shift in the thermal melting curve upon OA administration”.

— PMC11676196, “Inhibition of TFAM-Mediated Mitophagy by Oroxylin A Restored Sorafenib Sensitivity Under Hypoxia Conditions in HepG2 Cells” (Pharmaceuticals, 2024)
